Reference: US20220274980A1, “PHARMACOLOGICAL INHIBITORS OF THE ENL YEATS DOMAIN” (priority 2019, published 2022)
Read-outs that look alike come from different tables or passages of the source.

Tests used:
[1] = target: T1, ENL(YEATS)-HiBiT (Homo sapiens, UniProt Q03111); settings: read-out: ENL YEATS CETSA (IC50); Table 2; OCI/AML-2 cells expressing ENL(YEATS)-HiBiT
T1 sequence (Q03111 1-138 limits assumed): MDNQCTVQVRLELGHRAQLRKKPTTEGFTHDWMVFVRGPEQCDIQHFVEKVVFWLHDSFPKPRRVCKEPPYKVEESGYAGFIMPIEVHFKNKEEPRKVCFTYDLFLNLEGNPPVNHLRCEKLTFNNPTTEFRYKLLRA
Protocol: (§3) Cellular thermal shift assay (CETSA). […] Cells were transferred to 384-well (20,000 cells per well in 20 μL) or 1,536-well (3,000 cells per well in 4 μL) plates and drug was transferred using a 100 nL pin tool for 384-well plates or acoustic transfer (Labcyte, Echo Liquid Handler) for 1,536-well plates. Luminescent detection of HiBiT was performed by combining an equal volume of Nano-Glo HiBiT Lytic Reagent (Promega, HiBiT Lytic Detection System, Cat. No. N3040) in each well. […] Briefly, cells were treated with drug, washed with PBS, heated to various temperatures in a thermocycler, cooled to room temperature, lysed by three rounds of freeze-thaw, and then clarified lystaes were subjected to immunoblot analysis.

[2] = target: T1, ENL(YEATS)-HiBiT; assay: cell-based
Protocol: as §3

[3] = target: T2, ENL YEATS domain (association with H3K27cr) (Homo sapiens, UniProt Q03111); assay: biochemical; settings: ENL (YEATS)-H3K27cr HTRF (IC50, μM)
T2 sequence (Q03111 1-148): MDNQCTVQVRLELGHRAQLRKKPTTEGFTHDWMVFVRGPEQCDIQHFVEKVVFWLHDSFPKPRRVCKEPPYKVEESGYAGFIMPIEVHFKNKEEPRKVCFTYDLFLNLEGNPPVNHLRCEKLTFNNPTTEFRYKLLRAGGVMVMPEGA
Protocol: (§1) Protein Production. Double stranded DNA fragments encoding the protein sequence of ENL YEATS(1-148) were synthesized (IDT DNA) for assembly-based cloning into a modified expression vector backbone derived from pET21a (Novagen). The protein was fused to a StrepII-SUMO and 6×His tag on the amino and carboxy terminus, respectively. Transformed BL21(DE3) cells (New England Biolabs) were grown at 37° C. in 2×YT growth medium to an OD600 of 0.6. Protein expression was induced at 25° C. with the addition of isopropyl-β-D-thiogalactopyranoside (IPTG) to a final concentration of 0.4 mM. The culture was harvested by centrifugation following a 20-hour incubation and subsequently purified by immobilized metal affinity chromatography. Cells were resuspended 50 mM Tris-HCl pH 8.0, 300 mM NaCl, 10% glycerol, 10 mM imidazole, 1 mM DTT containing Complete EDTA-free protease inhibitor (Roche) and lysed by two passes through a MicroFluidizer at 10,000 psi. The lysate was clarified by centrifugation at 16,000 rpm for 30 minutes at 4° C. The supernatant was passed over NiNTA agarose (QIAGEN) and the protein was eluted in 50 mM Tris-HCl pH 8.0, 300 mM NaCl, 10% glycerol, 250 mM imidazole, 1 mM DTT. Fractions containing the ENL YEATS(1-148) fusion protein were buffer exchanged into 100 mM Tris-HCl pH 8.0, 150 mM NaCl, 1 mM EDTA, 1 mM DTT using PD10 desalting columns (GE Life Sciences). Ulp1 protease was added to cleave the StrepII-SUMO fusion and the reaction mixture was incubated overnight at 4° C. The cleavage reaction mixture was loaded onto a StrepTrap column (GE Life Sciences) and ENL YEATS(1-148) was recovered in the flow through. BRD4 BD1 was purchased from Cayman (Cat. No. 11720).
(§2) Homogenous time-resolved FRET (HTRF) histone-binding assays. Both HTRF assays were performed by combining recombinant protein and synthetic histone peptide in assay buffer (25 mM HEPES pH 7, 20 mM NaCl, 0.2% Pluronic F-127, and 0.05% BSA) with 1 nM LanthaScreen Eu-anti-His Tag antibody (ThermoFisher, Cat. No, PV5597) and 8.9 nM SureLight allophycocyanin-streptavidin (Perkin Elmer, APC-SA, Cat. No. CR130-100). ENL YEATS was used at 5 nM and BRD4 BD1 was used at 10 nM. ENL assays were performed with H3(13-32)K27cr (13.3 and 100 nM, respectively), custom synthesized at ABclonal (N-terminal biotin, C-terminal amide); BRD4 BD1 assay was performed with 13.3 nM tetra-acetylated H4 (BioVision, Cat. No. 7144-01). Once all reagents were combined (with or without peptide), 10 μL was dispensed per well into black 384-well low-volume plates (Corning, Cat. No. 3821) and drug was added by pin tool transfer (Biomek FX). Assays were incubated for 2 or more hours before measurement of HTRF signal on a PHERAstar plate reader (BMG Labtech; simultaneous dual emission; excitation=337 nm, emission 1=665 nm, emission 2=620 nm). HTRF signal (ratio of emission 1 to emission 2) from vehicle-treated wells (maximum signal) and no-peptide-control wells (minimum signal) were used to calculate percent inhibition for drug-treated wells.

[4] = Half-life in mouse liver microsomes; format: in vitro ADME
[5] = target: T3, BRD4 bromodomain 1 (BD1) (Homo sapiens, UniProt O60885); assay: BRD4 (BD1)-H4 tetra-acetylated HTRF histone-binding assay
T3 construct: Selectivity against BRD4 bromodomain 1 (BD1), measured by HTRF; His; purchased Cayman 11720
Protocol: as §1, §2

[6] = read-out: t1/2 (min) mouse liver microsomes

IC50 [1] [µM] | IC50 [2] [µM] | IC50 ([3]; Table 1) [µM] | IC50 ([3]; Table 2) [µM] | half-life [4, 6] [min] | half-life ([4]; without NADPH, read-out: t1/2 mouse (min liver microsomes (without NADPH))) [min] | IC50 ([5]; Table 1) [µM] | IC50 ([5]; Table 2) [µM] | SMILES
> 50 | > 50 | > 50 | > 50 | – | – | – | – | O=C(NC1C2CC1C2)c1ccc2nc(-c3ccccc3)cn2c1 (stereo not drawn) [Compound 84]
– | 0.238 | 0.029 | 0.029 | 4.04 | 463 | – | – | CC1CCN(CCNS(=O)(=O)Nc2cccc(-c3cn4cc(C(=O)NC5CCC5)ccc4n3)c2)CC1 [Compound 100]
> 50 | > 50 | > 50 | > 50 | – | – | – | – | O=C(N[C@@H]1CC[C@@H]1c1ccccc1)c1ccc2nc(-c3ccccc3)cn2c1 [Compound 115]
> 100 | > 100 | > 50 | > 50 | – | – | > 50 | > 50 | O=C(NC1CCC(O)CC1)c1ccc2nc(-c3ccccc3)cn2c1 (stereo not drawn) [Compound 2]
> 50 | > 50 | > 50 | > 50 | – | – | – | – | CC(C)(C)C1CC(NC(=O)c2ccc3nc(-c4ccccc4)cn3c2)C1 (stereo not drawn) [Compound 120]
> 50 | > 50 | > 50 | > 50 | – | – | – | – | O=C(NC1(c2ccccc2)CCC1)c1ccc2nc(-c3ccccc3)cn2c1 [Compound 83]
> 100 | > 100 | > 50 | > 50 | – | – | > 50 | > 50 | CC(C)N(C)C(=O)c1ccc2nc(-c3ccccc3)cn2c1 [Compound 8]
– | 1.07 | 0.172 | 0.172 | 6.16 | – | – | – | O=C(CN1CCCCC1)Nc1cccc(-c2cn3cc(C(=O)NC4CCC4)ccc3n2)c1 [Compound 112]
> 100 | > 100 | > 50 | > 50 | – | – | > 50 | > 50 | Cc1ccc(-c2cn3cc(C(=O)NC(C)C)ccc3n2)cc1C [Compound 25]
> 50 | > 50 | > 50 | > 50 | – | – | – | – | CC(C)C1CC(NC(=O)c2ccc3nc(-c4ccccc4)cn3c2)C1 (stereo not drawn) [Compound 119]
> 100 | > 100 | > 50 | > 50 | – | – | > 50 | > 50 | CC(C)NC(=O)c1ccc2nc(-c3ccccc3C(F)(F)F)cn2c1 [Compound 6]
> 100 | > 100 | > 50 | > 50 | – | – | > 50 | > 50 | COc1ccccc1-c1cn2cc(C(=O)NC(C)C)ccc2n1 [Compound 10]
> 50 | > 50 | 4.6 | 4.6 | – | – | – | – | CC1CC(NC(=O)c2ccc3nc(-c4ccccc4)cn3c2)C1 (stereo not drawn) [Compound 87]
> 50 | > 50 | > 50 | > 50 | – | – | – | – | O=C(N[C@H]1CCc2ccccc21)c1ccc2nc(-c3ccccc3)cn2c1 [Compound 79]
> 100 | > 100 | > 50 | > 50 | – | – | > 50 | > 50 | CC(C)NC(=O)c1ccc2nc(-c3ccc(OC(F)(F)F)cc3)cn2c1 [Compound 19]
> 100 | > 100 | > 50 | > 50 | – | – | > 50 | > 50 | CC(C)NC(=O)c1ccc2nc(-c3ccc(C(F)(F)F)cc3)cn2c1 [Compound 7]

IC50 [1] [µM] | IC50 [2] [µM] | IC50 ([3]; Table 1) [µM] | IC50 ([3]; Table 2) [µM] | half-life [4, 6] [min] | half-life ([4]; without NADPH, read-out: t1/2 mouse (min liver microsomes (without NADPH))) [min] | IC50 ([5]; Table 1) [µM] | IC50 ([5]; Table 2) [µM] | SMILES
> 50 | > 50 | > 50 | > 50 | – | – | – | – | O=C(NC1Cc2ccccc2C1)c1ccc2nc(-c3ccccc3)cn2c1 [Compound 77]
> 50 | > 50 | 3.03 | 3.03 | – | – | – | – | O=C(NC1Cc2ccccc21)c1ccc2nc(-c3ccccc3)cn2c1 (stereo not drawn) [Compound 80]
> 50 | > 50 | > 50 | > 50 | – | – | – | – | O=C(NC1(CO)CCC1)c1ccc2nc(-c3ccccc3)cn2c1 [Compound 72]
> 100 | > 100 | > 50 | > 50 | – | – | > 50 | > 50 | CC(C)NC(=O)c1ccc2nc(-c3ccccc3OC(F)(F)F)cn2c1 [Compound 12]
– | 80 | 20 | 20 | – | – | > 50 | > 50 | O=C(NC1CCCC(O)C1)c1ccc2nc(-c3ccccc3)cn2c1 (stereo not drawn) [Compound 16]
– | 80 | 4.5 | 4.5 | – | – | > 50 | > 50 | CC(C)NC(=O)c1ccc2nc(-c3cccc(C#N)c3)cn2c1 [Compound 18]
> 50 | > 50 | > 50 | > 50 | – | – | – | – | O=C(NC1CC(F)(F)C1)c1ccc2nc(-c3ccccc3)cn2c1 [Compound 75]
> 100 | > 100 | > 50 | > 50 | – | – | > 50 | > 50 | CCC(CC)NC(=O)c1ccc2nc(-c3ccccc3)cn2c1 [Compound 13]
> 50 | > 50 | > 50 | > 50 | – | – | – | – | CC1(NC(=O)c2ccc3nc(-c4ccccc4)cn3c2)CCC1 [Compound 73]
> 50 | > 50 | > 50 | > 50 | – | – | – | – | CN(C(=O)c1ccc2nc(-c3ccccc3)cn2c1)C1CCC1 [Compound 81]
> 100 | > 100 | 15 | 15 | – | – | > 50 | > 50 | CC(C)NC(=O)c1ccc2nc(-c3cccc(C(F)(F)F)c3)cn2c1 [Compound 21]
> 100 | > 100 | > 50 | > 50 | – | – | > 50 | > 50 | O=C(NC1CCCCC1O)c1ccc2nc(-c3ccccc3)cn2c1 (stereo not drawn) [Compound 11]
> 100 | > 100 | 3.5 | 3.5 | – | – | > 50 | > 50 | CC(C)NC(=O)c1ccc2nc(-c3cccc(OC(F)(F)F)c3)cn2c1 [Compound 3]
> 50 | > 50 | > 50 | > 50 | – | – | – | – | N#CC1(NC(=O)c2ccc3nc(-c4ccccc4)cn3c2)CCC1 [Compound 82]
– | 80 | 2.9 | 2.9 | – | – | > 50 | > 50 | CC(C)NC(=O)c1ccc2nc(-c3ccc(C#N)cc3)cn2c1 [Compound 4]
> 50 | > 50 | > 50 | > 50 | – | – | – | – | Cc1ccc(C2CCC2NC(=O)c2ccc3nc(-c4ccccc4)cn3c2)c(C)c1 (stereo not drawn) [Compound 123]
